What was measured:
[1] = tested on: Proto-oncogene tyrosine-protein kinase receptor Ret (Homo sapiens), P07949 [V804M]; assay: Inhibition of RET V804M mutant (unknown origin) assessed as residual activity at 1000 nM by KINOMEscan analysis relative to control
[2] = biological target: Proto-oncogene tyrosine-protein kinase receptor Ret (Homo sapiens) (UniProt P07949); assay: Inhibition of RET (unknown origin) assessed as residual activity at 1000 nM by KINOMEscan analysis relative to control
[3] = biological target: T1, Cyclin-dependent kinase-like 5 (Homo sapiens) (UniProt O76039); assay: Inhibition of CDKL5 (unknown origin) assessed as residual activity at 1000 nM by KINOMEscan analysis relative to control
T1 sequence (whole entry): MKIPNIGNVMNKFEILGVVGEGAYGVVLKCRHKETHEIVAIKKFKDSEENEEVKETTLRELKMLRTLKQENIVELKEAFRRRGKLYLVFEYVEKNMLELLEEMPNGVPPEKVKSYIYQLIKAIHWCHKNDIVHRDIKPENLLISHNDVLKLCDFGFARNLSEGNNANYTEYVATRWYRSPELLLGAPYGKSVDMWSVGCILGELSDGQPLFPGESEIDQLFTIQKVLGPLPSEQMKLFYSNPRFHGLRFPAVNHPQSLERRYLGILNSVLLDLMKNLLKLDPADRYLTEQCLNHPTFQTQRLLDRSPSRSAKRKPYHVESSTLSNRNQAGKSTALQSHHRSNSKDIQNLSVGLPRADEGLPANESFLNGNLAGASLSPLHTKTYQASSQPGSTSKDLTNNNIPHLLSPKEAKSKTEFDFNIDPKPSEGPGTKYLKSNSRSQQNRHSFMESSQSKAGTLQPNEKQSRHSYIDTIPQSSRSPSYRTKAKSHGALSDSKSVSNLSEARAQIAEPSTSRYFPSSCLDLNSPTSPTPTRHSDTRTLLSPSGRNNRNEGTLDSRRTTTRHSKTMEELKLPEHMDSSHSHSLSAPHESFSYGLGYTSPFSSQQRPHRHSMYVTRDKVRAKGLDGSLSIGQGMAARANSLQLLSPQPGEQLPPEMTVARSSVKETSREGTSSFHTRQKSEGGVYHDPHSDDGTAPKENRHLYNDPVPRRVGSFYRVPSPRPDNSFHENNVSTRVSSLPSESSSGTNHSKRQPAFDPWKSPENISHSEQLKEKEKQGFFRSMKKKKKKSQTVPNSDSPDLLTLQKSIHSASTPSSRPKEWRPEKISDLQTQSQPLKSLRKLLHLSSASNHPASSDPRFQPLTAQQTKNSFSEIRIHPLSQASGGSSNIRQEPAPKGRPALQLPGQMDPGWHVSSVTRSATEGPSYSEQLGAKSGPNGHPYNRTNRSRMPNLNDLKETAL

[4] = biological target: Serine/threonine-protein kinase MARK2 (Homo sapiens) (UniProt Q7KZI7); assay: Inhibition of MARK2 (unknown origin) assessed as residual activity at 1000 nM by KINOMEscan analysis relative to control
Chain of Serine/threonine-protein kinase MARK2 (Homo sapiens) (Q7KZI7 whole entry): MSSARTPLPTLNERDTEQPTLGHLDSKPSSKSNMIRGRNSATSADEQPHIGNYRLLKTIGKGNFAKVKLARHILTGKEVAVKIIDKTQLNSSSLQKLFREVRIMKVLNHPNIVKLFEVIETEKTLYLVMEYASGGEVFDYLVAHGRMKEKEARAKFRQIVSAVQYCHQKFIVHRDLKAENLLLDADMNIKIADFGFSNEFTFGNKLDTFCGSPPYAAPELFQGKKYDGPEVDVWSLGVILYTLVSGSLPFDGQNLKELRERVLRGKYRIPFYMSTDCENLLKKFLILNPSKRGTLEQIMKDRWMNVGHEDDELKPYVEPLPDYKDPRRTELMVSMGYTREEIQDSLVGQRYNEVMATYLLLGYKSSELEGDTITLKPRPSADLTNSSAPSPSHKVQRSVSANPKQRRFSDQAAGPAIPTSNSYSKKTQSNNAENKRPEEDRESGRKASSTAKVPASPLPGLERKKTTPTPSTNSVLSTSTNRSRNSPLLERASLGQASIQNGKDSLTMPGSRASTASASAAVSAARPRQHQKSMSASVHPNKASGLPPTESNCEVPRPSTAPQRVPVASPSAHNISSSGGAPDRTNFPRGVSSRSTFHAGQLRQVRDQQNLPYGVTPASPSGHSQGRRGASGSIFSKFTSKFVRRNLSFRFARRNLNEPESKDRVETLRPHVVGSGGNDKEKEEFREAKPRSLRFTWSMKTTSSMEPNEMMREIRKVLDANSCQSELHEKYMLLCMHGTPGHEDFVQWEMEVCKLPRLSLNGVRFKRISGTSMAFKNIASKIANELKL

[5] = biological target: Calcium/calmodulin-dependent protein kinase type II subunit gamma (Homo sapiens) (UniProt Q13555); assay: Inhibition of CAMK2G (unknown origin) assessed as residual activity at 1000 nM by KINOMEscan analysis relative to control
Chain of Calcium/calmodulin-dependent protein kinase type II subunit gamma (Homo sapiens) (Q13555 whole entry): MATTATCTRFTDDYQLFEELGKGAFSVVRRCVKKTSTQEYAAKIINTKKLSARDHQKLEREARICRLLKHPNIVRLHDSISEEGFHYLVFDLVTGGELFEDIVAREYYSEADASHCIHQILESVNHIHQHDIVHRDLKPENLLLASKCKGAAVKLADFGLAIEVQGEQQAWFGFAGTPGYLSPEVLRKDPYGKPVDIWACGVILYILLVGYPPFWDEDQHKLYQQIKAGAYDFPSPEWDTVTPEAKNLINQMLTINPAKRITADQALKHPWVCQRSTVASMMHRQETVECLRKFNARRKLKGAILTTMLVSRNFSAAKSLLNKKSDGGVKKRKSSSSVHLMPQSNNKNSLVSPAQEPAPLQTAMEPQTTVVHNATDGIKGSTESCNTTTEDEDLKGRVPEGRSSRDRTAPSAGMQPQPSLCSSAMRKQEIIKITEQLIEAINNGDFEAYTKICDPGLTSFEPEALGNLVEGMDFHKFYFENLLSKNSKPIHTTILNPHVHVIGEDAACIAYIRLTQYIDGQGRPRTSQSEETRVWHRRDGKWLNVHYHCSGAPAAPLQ

[6] = biological target: T2, Ephrin type-B receptor 4 (Homo sapiens) (UniProt P54760); assay: Inhibition of EPHB4 (unknown origin) assessed as residual activity at 1000 nM by KINOMEscan analysis relative to control
T2 sequence (whole entry): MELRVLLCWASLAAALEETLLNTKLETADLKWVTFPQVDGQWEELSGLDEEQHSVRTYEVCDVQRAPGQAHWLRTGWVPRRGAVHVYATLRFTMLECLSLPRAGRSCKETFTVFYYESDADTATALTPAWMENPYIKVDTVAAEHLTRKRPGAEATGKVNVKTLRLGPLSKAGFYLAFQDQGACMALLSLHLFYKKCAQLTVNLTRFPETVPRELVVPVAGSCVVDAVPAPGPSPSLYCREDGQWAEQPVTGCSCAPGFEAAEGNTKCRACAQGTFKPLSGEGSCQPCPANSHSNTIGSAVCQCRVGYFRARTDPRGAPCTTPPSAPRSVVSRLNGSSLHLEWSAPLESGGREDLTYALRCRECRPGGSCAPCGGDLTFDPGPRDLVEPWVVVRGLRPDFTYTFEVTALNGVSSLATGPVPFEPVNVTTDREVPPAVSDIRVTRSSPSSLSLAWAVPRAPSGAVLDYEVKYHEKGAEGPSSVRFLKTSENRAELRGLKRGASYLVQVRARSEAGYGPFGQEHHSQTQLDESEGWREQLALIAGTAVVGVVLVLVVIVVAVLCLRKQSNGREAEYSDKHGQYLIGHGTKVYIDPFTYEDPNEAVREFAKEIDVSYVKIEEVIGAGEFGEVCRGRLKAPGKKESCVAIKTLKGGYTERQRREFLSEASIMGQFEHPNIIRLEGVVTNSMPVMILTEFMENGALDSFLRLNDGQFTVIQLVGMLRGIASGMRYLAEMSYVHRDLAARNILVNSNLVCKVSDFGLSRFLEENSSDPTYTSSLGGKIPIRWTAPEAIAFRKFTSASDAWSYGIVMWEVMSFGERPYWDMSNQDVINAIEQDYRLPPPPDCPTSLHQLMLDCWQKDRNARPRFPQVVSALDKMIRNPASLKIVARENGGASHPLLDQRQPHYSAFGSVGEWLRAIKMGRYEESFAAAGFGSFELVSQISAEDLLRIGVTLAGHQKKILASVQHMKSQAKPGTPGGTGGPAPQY

Chain of Proto-oncogene tyrosine-protein kinase receptor Ret (Homo sapiens) (P07949 whole entry): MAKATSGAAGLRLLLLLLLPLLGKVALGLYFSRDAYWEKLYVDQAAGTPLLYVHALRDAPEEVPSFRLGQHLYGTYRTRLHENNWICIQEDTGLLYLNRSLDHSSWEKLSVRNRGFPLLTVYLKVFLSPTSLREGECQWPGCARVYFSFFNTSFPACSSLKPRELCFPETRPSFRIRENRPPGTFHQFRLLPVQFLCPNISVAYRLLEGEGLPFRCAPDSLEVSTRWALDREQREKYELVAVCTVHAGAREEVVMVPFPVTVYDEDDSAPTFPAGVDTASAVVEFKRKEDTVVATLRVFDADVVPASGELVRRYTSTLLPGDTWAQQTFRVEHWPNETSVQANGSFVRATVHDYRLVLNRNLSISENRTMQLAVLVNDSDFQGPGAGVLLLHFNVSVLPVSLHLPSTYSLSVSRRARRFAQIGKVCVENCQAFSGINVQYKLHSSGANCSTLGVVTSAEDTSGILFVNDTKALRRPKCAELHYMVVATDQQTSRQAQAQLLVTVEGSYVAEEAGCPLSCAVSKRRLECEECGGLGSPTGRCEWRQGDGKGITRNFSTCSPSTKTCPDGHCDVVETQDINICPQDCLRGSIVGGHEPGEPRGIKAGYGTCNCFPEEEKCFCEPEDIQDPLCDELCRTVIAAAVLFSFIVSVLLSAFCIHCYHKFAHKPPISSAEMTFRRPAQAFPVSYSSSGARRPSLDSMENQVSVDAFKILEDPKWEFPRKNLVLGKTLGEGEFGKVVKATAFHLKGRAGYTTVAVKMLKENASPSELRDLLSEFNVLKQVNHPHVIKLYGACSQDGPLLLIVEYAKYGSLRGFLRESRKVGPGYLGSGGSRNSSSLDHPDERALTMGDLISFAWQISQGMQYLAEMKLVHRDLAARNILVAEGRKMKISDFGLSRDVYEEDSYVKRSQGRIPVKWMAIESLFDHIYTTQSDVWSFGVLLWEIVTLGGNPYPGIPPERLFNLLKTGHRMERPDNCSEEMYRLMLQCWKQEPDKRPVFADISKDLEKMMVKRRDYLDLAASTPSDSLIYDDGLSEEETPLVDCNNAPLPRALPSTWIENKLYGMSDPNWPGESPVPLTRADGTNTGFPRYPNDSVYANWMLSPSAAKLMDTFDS
Chain of Proto-oncogene tyrosine-protein kinase receptor Ret (Homo sapiens), P07949 [V804M] (P07949 whole entry V804M): as the sequence (P07949 whole entry) above, with V804M counted along it

| SMILES | Activity [1] | Activity [2] | Activity [3] | Activity [4] | Activity [5] | Activity [6] |
| --- | --- | --- | --- | --- | --- | --- |
| COc1cc2nc(C)nc(N[C@H](C)c3cccc(-c4cn[nH]c4)c3)c2cc1OC | 92% | 94% | 82% | 100% | 83% | 45% |
| COc1cc2ncnc(N[C@H](C)c3cccc4ccccc34)c2cc1OC | 100% | 92% | 94% | 75% | 92% | 99% |

— ChEMBL document CHEMBL5678818, “Discovery of potent SOS1 inhibitors that block RAS activation via disruption of the RAS-SOS1 interaction” (Proc Natl Acad Sci U S A, 2019)
